Here are results for four molecules from patent US7270977B2, “Polypeptides for identifying fungicidally active compounds” (priority 2001, dated 2007).

The assay deals with U. maydis IMPDH (Imp1) (Ustilago maydis, UniProt A0A0D1CRJ0, T408N). Nature of the assay: Inhibition of U. maydis IMPDH (NADH fluorescence assay). In kind it is biochemical. Conditions: negative decimal logarithm of the molar IC50 for 50% inhibition of the enzyme; read-out: pI50 (converted). The protocol:
The activity, or the decrease or increase in activity, can also preferably be determined by means of the conversion of the substrate NAD^+ into NADH, where the lower, or inhibited, activity of the polypeptide according to the invention is determined with reference to a less sharp increase in fluorescence emitted by the smaller amounts of NADH formed (see also FIG. 1). NADH fluoresces more than NAD^+.
To this end, the polypeptide according to the invention is incubated at a suitable concentration, which is preferably between 0.1 and 20 ng/μl, preferably between 0.13 and 10 ng/μl, of the enzyme, with NAD^+ at a concentration of from 5 to 400 μM, preferably 10 to 100 μM, and IMP at a concentration of from 5 to 400 μM, preferably from 50 to 300 μM, at a suitable temperature. The IMP concentration is preferably in each case twice as high as the concentration of the substrate NAD^+. It must be borne in mind that substrate inhibition can be observed for both substrates, viz. NAD^+ and IMP, and the used concentrations of the two substrates should therefore be checked in this respect. The temperature may be in a range of from 8 to 37° C. The measurement is preferably carried out at from 10 to 30° C., room temperature is also suitable in particular. The reaction is carried out in a usual buffer (“assay buffer”) which can contain preferably for example 20 to 200 mM KCl, 1 to 5 mM DTE or DTT, 0.01 to 1% BSA, 0.01 to 0.1% Tween 20 and 2 to 10% glycerol and brought to a pH of 8, for example using 25 to 100 mM Tris buffer (see Example 2). […]
The formation of NADH in the course of the reaction is then monitored with reference to the fluorescence at an excitation wavelength of 360 nm and an emission wavelength of 465 nm. The increase in fluorescence in the presence of a chemical compound can then be compared with the increase in fluorescence in the absence of a chemical compound. […] The period within which the increase in fluorescence is measured can be varied. A slow increase in fluorescence can be observed over the course of several hours, until, after 5 to 10 hours, a plateau is reached (see also FIG. 3). As a rule, the fluorescence decreases thereafter. […]
The measurement can also be carried out in formats conventionally used for HTS or UHTS assays, for example in microtitre plates, into which for example a total volume of 5 to 50 μl is introduced per reaction or per well and the individual components are present in one of the above-stated final concentrations. […] The mixture is then incubated for example for up to 2 or 3 hours at a suitable temperature, and the increase in fluorescence is measured at an excitation wavelength of 360 nm and an emission wavelength of 460 nm. […]
Take `CCCCCCCCCCCCCCCCOc1ccc(CCCC(=O)O)cc1` [Example 1]: the IC50 is 25.1 µM.

For `COC1=Cc2ccccc2C(=O)C1=O` [Example 2], the IC50 was 12.6 µM.

Take `CN1CCN(C)c2cc3nc4ccccc4nc3cc21` [Example 3]: the IC50 was 10 µM.

As for `c1coc(-c2oc3nc4c(-c5ccco5)c(-c5ccco5)oc4nc3c2-c2ccco2)c1` [Example 4], the IC50 was 0.2 µM.
